Molecular target: T1, phosphoglycerate kinase 1 (PGK1) (Homo sapiens, UniProt P00558)
T1 construct: Flag-tagged PGK1, whole-length cDNA, purified from HEK293T cells
T1 sequence (P00558 2-417): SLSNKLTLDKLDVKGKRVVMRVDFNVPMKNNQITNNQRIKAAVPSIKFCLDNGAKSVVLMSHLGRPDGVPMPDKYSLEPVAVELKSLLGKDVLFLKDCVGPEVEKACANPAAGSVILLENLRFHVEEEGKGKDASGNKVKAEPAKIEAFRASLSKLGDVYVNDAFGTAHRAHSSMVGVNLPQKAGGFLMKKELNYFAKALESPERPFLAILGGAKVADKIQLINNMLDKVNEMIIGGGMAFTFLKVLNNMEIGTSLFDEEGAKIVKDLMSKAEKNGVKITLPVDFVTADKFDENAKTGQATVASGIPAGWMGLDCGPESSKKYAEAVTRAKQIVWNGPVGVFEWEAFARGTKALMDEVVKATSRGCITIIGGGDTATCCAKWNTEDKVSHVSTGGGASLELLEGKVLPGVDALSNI
Experiment: in vitro enzymatic assay of purified Flag-PGK1, GAPDH-coupled, NADH decrease at […] nm
Assay type: biochemical

Compound: Nc1ccn([C@@H]2O[C@H](CO)[C@@H](O)C2(F)F)c(=O)n1 [gemcitabine]
- IC50: 16.3 nM

— paper PMC10039899, “Integrative proteogenomic characterization of early esophageal cancer” (Nature Communications, 2023)
